Measurements from patent publication US12030876B2, “Aryl hydrocarbon receptor (AHR) agonists and uses thereof” (Ikena Oncology, Inc., priority 2019, dated 2024).

Each compound was assayed against T1, AHR (Homo sapiens, UniProt P35869) (assay: DRE-Luciferase Reporter Assay, HepG2 (agonist)). Conditions: HepG2, Table 2; read-out: DRE-Luc HepG2 - Agonist: Average EC50.
T1 construct: endogenous in cells; host or cells: HepG2 (human), transfected with a DRE-luciferase reporter only
T1 sequence (P35869 11-848): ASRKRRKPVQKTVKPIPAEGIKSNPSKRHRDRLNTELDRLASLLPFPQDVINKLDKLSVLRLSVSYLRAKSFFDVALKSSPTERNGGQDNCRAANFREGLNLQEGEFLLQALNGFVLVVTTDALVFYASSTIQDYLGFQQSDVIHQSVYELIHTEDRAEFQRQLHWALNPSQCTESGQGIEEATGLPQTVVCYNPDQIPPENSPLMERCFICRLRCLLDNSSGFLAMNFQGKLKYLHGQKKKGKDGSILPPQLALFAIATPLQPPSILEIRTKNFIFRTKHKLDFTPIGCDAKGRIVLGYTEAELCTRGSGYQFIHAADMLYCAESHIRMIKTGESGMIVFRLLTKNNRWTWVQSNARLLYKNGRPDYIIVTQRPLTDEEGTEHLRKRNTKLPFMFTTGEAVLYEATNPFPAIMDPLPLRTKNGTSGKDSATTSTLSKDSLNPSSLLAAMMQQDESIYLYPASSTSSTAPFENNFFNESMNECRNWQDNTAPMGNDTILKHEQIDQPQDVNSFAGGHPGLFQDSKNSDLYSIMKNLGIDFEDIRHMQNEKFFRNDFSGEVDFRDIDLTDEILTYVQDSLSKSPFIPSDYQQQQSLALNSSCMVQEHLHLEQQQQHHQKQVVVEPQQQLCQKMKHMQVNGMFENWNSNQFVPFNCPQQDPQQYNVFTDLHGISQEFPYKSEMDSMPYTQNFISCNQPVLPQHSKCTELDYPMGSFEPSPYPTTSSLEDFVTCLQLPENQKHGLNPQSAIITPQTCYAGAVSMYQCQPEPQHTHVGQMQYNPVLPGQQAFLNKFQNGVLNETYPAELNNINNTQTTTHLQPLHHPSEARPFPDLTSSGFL
Type: cell-based
Summary of the method: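 Cells carrying a stably or transiently transfected DRE-luciferase reporter, plated overnight at 37 C, then given agonist for 6, 16 or 24 h before lysis and luciferase read-out. Signal scaled between no ligand (minimum) and activating ligand alone, e.g. TCDD (maximum); EC50 = concentration giving half-maximal luciferase activity.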

EC50 [µM]	Compound
0.1 to 1	FC(F)(F)c1cccc(Nc2nc(-c3cccc(/N=N/c4cccc(-c5csc(Nc6cccc(C(F)(F)F)c6)n5)c4)c3)cs2)c1 [I-41]

Same assay, conditions: HepG2, Table 3; read-out: DRE-Luc HepG2 - Agonist: Average EC50

Compound	EC50 [µM]
O=C(O)c1cc(/N=N/c2cccc(-c3csc(Nc4cccc(C(F)(F)F)c4)n3)c2)ccc1O [I-162]	> 1
Nc1cncc(-c2csc(Nc3cccc(C(F)(F)F)c3)n2)c1 [I-164]	< 0.01
Nc1cc(-c2csc(Nc3cccc(C(F)(F)F)c3)n2)c(F)cc1F [I-165]	< 0.01
COC(=O)/C(C)=N/Nc1cccc(-c2csc(Nc3cccc(C(F)(F)F)c3)n2)c1 [I-167]	0.1 to 1
Nc1ccnc(-c2csc(Nc3cccc(C(F)(F)F)c3)n2)c1 [I-168]	> 1

The remaining lines, values ahead:

EC50 [µM]	Compound
> 1	C[N+]1(C)CCN(C(=O)c2cccc(Nc3nc(-c4ccc[n+]([O-])c4)cs3)c2)CC1 [I-159]
< 0.01	COC(=O)COc1cc(-c2csc(Nc3cccc(C(F)(F)F)c3)n2)ccn1 [I-160]
0.1 to 1	O=C(O)c1cccc(/N=N/c2cccc(-c3csc(Nc4cccc(C(F)(F)F)c4)n3)c2)c1 [I-161]
< 0.01	Nc1cc(-c2csc(Nc3cccc(C(F)(F)F)c3)n2)ccc1F [I-163]
< 0.01	Nc1ccc(F)c(-c2csc(Nc3cccc(C(F)(F)F)c3)n2)c1 [I-166]

These compounds were tested against T2, AHR (Mus musculus, UniProt P30561) (assay: P450 CYP1A1 Luciferase Assay, Hepa1.6 (agonist)). Conditions: Hepa1.6, Table 2.
T2 sequence (P30561 1-848 F348L/P471L): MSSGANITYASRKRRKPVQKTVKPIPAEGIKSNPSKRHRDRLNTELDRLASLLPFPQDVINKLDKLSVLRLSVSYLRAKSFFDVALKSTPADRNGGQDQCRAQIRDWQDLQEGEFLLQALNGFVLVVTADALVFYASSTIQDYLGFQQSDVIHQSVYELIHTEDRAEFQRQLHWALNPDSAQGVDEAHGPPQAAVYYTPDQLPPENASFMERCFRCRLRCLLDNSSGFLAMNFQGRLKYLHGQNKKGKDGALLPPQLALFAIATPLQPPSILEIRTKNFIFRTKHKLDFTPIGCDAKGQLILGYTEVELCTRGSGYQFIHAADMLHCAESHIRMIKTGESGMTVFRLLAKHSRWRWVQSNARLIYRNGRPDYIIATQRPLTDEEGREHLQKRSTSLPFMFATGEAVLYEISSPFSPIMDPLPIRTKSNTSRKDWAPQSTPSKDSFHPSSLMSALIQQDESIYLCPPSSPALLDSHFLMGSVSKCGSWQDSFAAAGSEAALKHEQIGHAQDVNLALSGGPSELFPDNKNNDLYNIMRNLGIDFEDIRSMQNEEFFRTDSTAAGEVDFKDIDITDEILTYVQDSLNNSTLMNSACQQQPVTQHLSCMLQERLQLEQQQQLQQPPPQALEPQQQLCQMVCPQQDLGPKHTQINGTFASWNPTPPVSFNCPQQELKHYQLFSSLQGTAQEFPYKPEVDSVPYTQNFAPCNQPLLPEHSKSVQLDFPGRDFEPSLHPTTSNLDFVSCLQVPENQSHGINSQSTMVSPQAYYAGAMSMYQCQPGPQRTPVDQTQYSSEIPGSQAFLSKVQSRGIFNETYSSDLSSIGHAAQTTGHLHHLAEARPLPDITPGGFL
Type: cell-based, murine
Summary of the method: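 Murine Hepa1-6 (or other murine/human lines) treated with agonist for 6, 16 or 24 h, then lysed and incubated with luminogenic CYP1A1 substrate (e.g. Luciferin-CEE). Luminescence normalised between no-ligand minimum and reference AHR ligand maximum; EC50 is concentration giving half-maximal activation.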

EC50 [µM]	Compound
> 1	FC(F)(F)c1cccc(Nc2nc(-c3cccc(/N=N/c4cccc(-c5csc(Nc6cccc(C(F)(F)F)c6)n5)c4)c3)cs2)c1 [I-41]

What follows are compounds tested against T2, AHR (assay: DRE-Luciferase Reporter Assay, Hepa1.6 (agonist)). Conditions: Hepa1.6, Table 3; read-out: DRE-Luc Hepa1.6 - Agonist: Average EC50.
Type: cell-based, murine
Description: DRE-Luciferase Reporter Assay
AHR binds to Dioxin Responsive Elements (DRE) upstream of genes that it activates. One measure of AHR activity is activation of a reporter gene, such as luciferase, downstream of one or multiple DRE elements. Luciferase activity reflects activation and inhibition of AHR in the cells expressing this reporter.
Murine Hepa1-6 or Hepa-1c1c7 or other murine cell line with a DRE-luciferase reporter either stably or transiently transfected are plated in media in plates (96-well, 384-well or other plates) and incubated overnight at 37 C in a CO2 incubator. Likewise, human HepG2 or other human cell line with a DRE-luciferase reporter either stably or transiently transfected are plated in media in plates (96-well, 384-well or other plates) and incubated overnight at 37 C in a CO2 incubator.
The next day, an AHR agonist compound is added. Cells are incubated for 6, 16 or 24 hours or another time point and then lysed for determination of luciferase activity as a read-out of the AHR activation. Luciferase can be measured with a commercial kit such as the Promega Luciferase kit or any kit or reagents that provide the luciferin substrate for measuring luciferase activity. The level of luciferase with only activating ligand (e.g. such as TCDD, kynurenine, ITE (2-(1H-indole-3-ylcarbonyl)-4-thiazolecarboxylic methyl ester), VAF347, BNF (beta-naphthoflavone), ICZ (6-formylindolo(3,2-b) carbazole or other AHR ligands) added is the maximum signal while the luciferase with no ligand is the minimum signal. EC50s can be determined as the concentration which activates half of the maximum luciferase activity.

Compound	EC50 [µM]
O=C(O)c1cc(/N=N/c2cccc(-c3csc(Nc4cccc(C(F)(F)F)c4)n3)c2)ccc1O [I-162]	> 1
Nc1cncc(-c2csc(Nc3cccc(C(F)(F)F)c3)n2)c1 [I-164]	< 0.01
Nc1cc(-c2csc(Nc3cccc(C(F)(F)F)c3)n2)c(F)cc1F [I-165]	< 0.01
COC(=O)/C(C)=N/Nc1cccc(-c2csc(Nc3cccc(C(F)(F)F)c3)n2)c1 [I-167]	0.1 to 1
Nc1ccnc(-c2csc(Nc3cccc(C(F)(F)F)c3)n2)c1 [I-168]	> 1

Other lines, results leading:

EC50 [µM]	Compound
> 1	C[N+]1(C)CCN(C(=O)c2cccc(Nc3nc(-c4ccc[n+]([O-])c4)cs3)c2)CC1 [I-159]
> 1	COC(=O)COc1cc(-c2csc(Nc3cccc(C(F)(F)F)c3)n2)ccn1 [I-160]
> 1	O=C(O)c1cccc(/N=N/c2cccc(-c3csc(Nc4cccc(C(F)(F)F)c4)n3)c2)c1 [I-161]
< 0.01	Nc1cc(-c2csc(Nc3cccc(C(F)(F)F)c3)n2)ccc1F [I-163]
< 0.01	Nc1ccc(F)c(-c2csc(Nc3cccc(C(F)(F)F)c3)n2)c1 [I-166]

Each compound was assayed on Cyp1a1 gene expression (assay: not given). Conditions: C57BL/6N, mouse, in vivo, po.
Set-up: species or system C57BL/6N mice
Description: C57BL/6N mice are weighed and randomized into treatment groups with group size of 3-5 mice. On study Day 1, treatment is initiated and necropsies follow on day 1 at 4 and 12 hours post-dose and on Day 2, 24 hours post-dose. On Day 1, mice are dosed orally with one dose of the AHR agonist compound(s) that are in a suspension and mixed well before dosing. At the designated time, animals are euthanized and plasma and tissue taken for compound levels (PK) and compound effect (PD) on gene expression. Liver samples and proximal colon are weighed and then frozen for subsequent RNA extraction and RT-PCR analysis. AHR activation is determined by measuring Cyp1a1 gene expression relative to a housekeeping gene, such as GAPDH or HPRT. Cyp1a1 expression levels in the liver are compared to Cyp1a1 levels in the colon to determine a colon:liver ratio to determine the level of GI preferred AHR activation.

Compound	Cyp1a1 induction in the colon
O=C(O)c1cccc(/N=N/c2cccc(-c3csc(Nc4cccc(C(F)(F)F)c4)n3)c2)c1 [I-161]	Cyp1a1 induction in the colon at low doses

Same assay, conditions: mouse, in vivo

Cyp1a1 induction in the colon	Cyp1a1 induction in the liver	colon:liver ratio of Cyp1a1 expression	Compound
comparable	significantly less induction	colon-preferred activity	O=C(O)c1cccc(/N=N/c2cccc(-c3csc(Nc4cccc(C(F)(F)F)c4)n3)c2)c1 [I-161]

These compounds were tested on DSS model of Inflammatory Bowel Disease (IBD) (assay: not given). Conditions: DSS model, relative to vehicle control; FIG. 6, FIG. 19.
Type: in vivo, C57Bl/6 mice
Description: On study day −1, C57Bl/6 mice are weighed and randomized into treatment groups based on body weight. On study day 0, treatment groups are given 2.5% DSS in drinking water and treatment is initiated on the same day, with either vehicle or AHR agonist compound(s). On study day 7, DSS drinking water is replaced with normal drinking water for the remainder of the study. Body weight is measured daily during the entire study. On study day 10, animals are anesthetized with Isoflurane and bled to exsanguination followed by cervical dislocation. The entire colon is removed and measured for length, weight, and weight per length. Overall efficacy of test AR agonist compounds is based on body weight, colon length, and colon histopathology. Histopathology data is assessed for appropriate parameters, as determined by a pathologist and the parameters for these DSS studies can include inflammation, erosion, gland loss, edema, hyperplasia, neutrophil count, mucosal thickening, lymphoid aggregate count and lymphoid aggregate size. The different parameter scores can be added for a summed score for the study histopathology.

Compound	inflammation and erosion (histopathology)
O=C(O)c1cccc(/N=N/c2cccc(-c3csc(Nc4cccc(C(F)(F)F)c4)n3)c2)c1 [I-161]	reduced inflammation and erosion

Same assay, conditions: DSS model; FIG. 18B

Compound	activity at all doses compared with CSA	histopathology data compared with CSA
O=C(O)c1cccc(/N=N/c2cccc(-c3csc(Nc4cccc(C(F)(F)F)c4)n3)c2)c1 [I-161]	comparable or better than CSA	activity comparable to CSA

Same assay, conditions: DSS model; FIG. 19

Compound	inflammation, edema, hyperplasia, and lymphoid aggregate size
O=C(O)c1cccc(/N=N/c2cccc(-c3csc(Nc4cccc(C(F)(F)F)c4)n3)c2)c1 [I-161]	reduction

Same assay, conditions: DSS model; compared with ITE administration; FIG. 8

Compound	histology evaluation of inflammation
FC(F)(F)c1cccc(Nc2nc(-c3cccc(/N=N/c4cccc(-c5csc(Nc6cccc(C(F)(F)F)c6)n5)c4)c3)cs2)c1 [I-41]	comparable activity

Same assay, conditions: FIGS. 18A-18B

Compound	efficacy in DSS IBD mouse model
O=C(O)c1cccc(/N=N/c2cccc(-c3csc(Nc4cccc(C(F)(F)F)c4)n3)c2)c1 [I-161]	demonstrates efficacy
